# Tests used:
# [1] = biological target: T1, Human Mer (Homo sapiens, UniProt Q12866); assay: Human Mer kinase assay (33P radiometric / HTRF KinEase); assay type: biochemical; details: protocols of Examples C-1 and/or C-2
# T1 construct: Human Mer (residues R557-E882 with H628Q and R794A, 0.7 nM); purchased Eurofins Pharma Discovery Services UK Limited (KinaseProfiler service)
# T1 sequence (Q12866 557-882 limits assumed): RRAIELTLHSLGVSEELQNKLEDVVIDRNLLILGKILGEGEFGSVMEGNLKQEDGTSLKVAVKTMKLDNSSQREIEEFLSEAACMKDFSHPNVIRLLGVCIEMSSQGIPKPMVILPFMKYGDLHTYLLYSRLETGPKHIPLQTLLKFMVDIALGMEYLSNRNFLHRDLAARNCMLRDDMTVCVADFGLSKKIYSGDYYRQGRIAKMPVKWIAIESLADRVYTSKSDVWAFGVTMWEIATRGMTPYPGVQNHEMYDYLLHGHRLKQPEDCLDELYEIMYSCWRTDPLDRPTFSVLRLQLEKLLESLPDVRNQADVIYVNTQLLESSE
# In short: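 Two formats yield IC50 values. HTRF KinEase used MER residues 528-999 with ATP at Km (40 μM), 1 μM biotin-peptide, 60 min RT, […], 10 concentrations. 33P filter assay used 0.7 nM Mer R557-E882 (H628Q/R794A), 10 μM ATP, 250 μM peptide, 40 min RT, top 1 μM.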
# [2] = biological target: T2, Human KDR (Homo sapiens, UniProt P35968); assay: Human KDR kinase assay (33P radiometric / HTRF KinEase); assay type: biochemical; details: protocols of Examples B-1 and/or B-2
# T2 construct: Human KDR (residues K790-V1356, 55 nM); purchased Eurofins Pharma Discovery Services UK Limited (KinaseProfiler, B-1) and/or CarnaBio (B-2)
# In short: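 Radiometric: KDR K790-V1356 (55 nM), MOPS pH 7.0, myelin basic protein, 10 μM [γ-33P]ATP, 40 min at room temperature, filter-bound 33P counted; nine half-log doses, top 1 μM. HTRF: KDR 790-1356, 1 μM biotinylated peptide, ATP at Km (4.0 μM), 40 min, 10 doses. IC50 from logistic fits.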
# T2 sequence (P35968 790-1356): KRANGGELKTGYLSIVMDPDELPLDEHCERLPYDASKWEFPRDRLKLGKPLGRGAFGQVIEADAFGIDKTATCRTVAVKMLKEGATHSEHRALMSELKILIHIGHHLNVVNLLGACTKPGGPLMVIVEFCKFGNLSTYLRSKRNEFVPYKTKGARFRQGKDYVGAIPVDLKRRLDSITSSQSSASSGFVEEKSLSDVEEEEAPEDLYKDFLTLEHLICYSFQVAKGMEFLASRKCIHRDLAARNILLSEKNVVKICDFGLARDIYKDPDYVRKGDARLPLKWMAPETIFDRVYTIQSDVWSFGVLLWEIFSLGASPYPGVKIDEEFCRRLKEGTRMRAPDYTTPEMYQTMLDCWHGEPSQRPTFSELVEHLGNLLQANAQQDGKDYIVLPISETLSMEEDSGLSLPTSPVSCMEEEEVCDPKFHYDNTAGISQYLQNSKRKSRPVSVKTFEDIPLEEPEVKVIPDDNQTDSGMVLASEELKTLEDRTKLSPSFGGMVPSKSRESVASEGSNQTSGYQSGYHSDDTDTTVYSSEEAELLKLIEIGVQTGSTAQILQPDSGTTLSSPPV
SMILES,IC50 [1] [nM],IC50 [2] [nM]
"COc1cc2nccc(Oc3ccc(NC(=O)c4c(C)n(C)c(C)c(/C=C/C5CC5)c4=O)cc3F)c2nc1OC [Compound 50, 5-[(E)-2-Cyclopropylethenyl]-N-[4-[(6,7-dimethoxy-1,5-naphthyridin-4-yl)oxy]-3-fluorophenyl]-1,2,6-trimethyl-4-oxopyridine-3-carboxamide]",≤ 100,> 300
"COc1cc2nccc(Oc3ccc(NC(=O)c4c5n(c(C)c(C6=CCCCC6)c4=O)CCOC5)cc3F)c2nc1OC [Compound 80, 7-(Cyclohexen-1-yl)-N-[4-[(6,7-dimethoxy-1,5-naphthyridin-4-yl)oxy]-3-fluorophenyl]-6-methyl-8-oxo-3,4-dihydro-1H-pyrido[2,1-c][1,4]oxazine-9-carboxamide]",≤ 100,≤ 100
"COc1cnc2c(Oc3ccc(NC(=O)c4c(C)n(C)c(C)c(C#N)c4=O)cc3F)ccnc2c1 [Compound 81, 5-Cyano-N-[3-fluoro-4-[(7-methoxy-1,5-naphthyridin-4-yl)oxy]phenyl]-1,2,6-trimethyl-4-oxopyridine-3-carboxamide]",> 300,> 300
"COc1cc2nccc(Oc3ccc(NC(=O)c4c(C)n(C)c(C)c(C#N)c4=O)cc3)c2nc1OC [Compound 82, 5-Cyano-N-[4-[(6,7-dimethoxy-1,5-naphthyridin-4-yl)oxy]phenyl]-1,2,6-trimethyl-4-oxopyridine-3-carboxamide]",> 300,> 300
"COc1cc2nccc(Oc3ccc(NC(=O)c4c(C)nc(C)c(C(N)=O)c4O)cc3F)c2nc1OC [Compound 84, 3-N-[4-[(6,7-Dimethoxy-1,5-naphthyridin-4-yl)oxy]-3-fluorophenyl]-4-hydroxy-2,6-dimethylpyridine-3,5-dicarboxamide]",> 300,> 300
"COc1cc2nccc(Oc3ccc(NC(=O)c4c(C)nc(C)c(C(N)=O)c4O)cc3)c2nc1OC [Compound 85, 3-N-[4-[(6,7-Dimethoxy-1,5-naphthyridin-4-yl)oxy]phenyl]-4-hydroxy-2,6-dimethylpyridine-3,5-dicarboxamide]",> 300,> 300
"COCCOc1cc2nccc(Oc3cc(F)c(NC(=O)c4c(C)nc(C)c(C(N)=O)c4O)cc3F)c2nc1OC [Compound 86, 3-N-[2,5-Difluoro-4-[[6-methoxy-7-(2-methoxyethoxy)-1,5-naphthyridin-4-yl]oxy]phenyl]-4-hydroxy-2,6-dimethylpyridine-3,5-dicarboxamide]",> 300,> 300
"COc1cc2nccc(Oc3ccc(NC(=O)c4c(C)nc(C)c(C#N)c4O)cc3F)c2nc1OC [Compound 87, 5-Cyano-N-[4-[(6,7-dimethoxy-1,5-naphthyridin-4-yl)oxy]-3-fluorophenyl]-4-hydroxy-2,6-dimethylpyridine-3-carboxamide]",> 300,100 to 300
"COc1cc2nccc(Oc3ccc(NC(=O)c4c(C)n(C)c(C)c(N5CCOCC5)c4=O)cc3F)c2nc1OC [Compound 88, N-[4-[(6,7-Dimethoxy-1,5-naphthyridin-4-yl)oxy]-3-fluorophenyl]-1,2,6-trimethyl-5-morpholin-4-yl-4-oxopyridine-3-carboxamide]",≤ 100,> 300
"COc1cc2nccc(Oc3ccc(NC(=O)c4c(C)n(C)c(C)c(C(=O)N(C)C)c4=O)cc3F)c2nc1OC [Compound 95, 5-N-[4-[(6,7-Dimethoxy-1,5-naphthyridin-4-yl)oxy]-3-fluorophenyl]-3-N,3-N,1,2,6-pentamethyl-4-oxopyridine-3,5-dicarboxamide]",> 300,> 300
"CNC(=O)c1c(C)nc(C)c(C(=O)Nc2ccc(Oc3ccnc4cc(OC)c(OC)nc34)c(F)c2)c1O [Compound 97, 3-N-[4-[(6,7-Dimethoxy-1,5-naphthyridin-4-yl)oxy]-3-fluorophenyl]-4-hydroxy-5-N,2,6-trimethylpyridine-3,5-dicarboxamide]",> 300,100 to 300
"COc1cc2nccc(Oc3ccc(NC(=O)c4c5n(c(C)c(C6=CCCCC6)c4=O)CCOC5)cc3)c2nc1OC [Compound 100, 7-(Cyclohexen-1-yl)-N-[4-[(6,7-dimethoxy-1,5-naphthyridin-4-yl)oxy]phenyl]-6-methyl-8-oxo-3,4-dihydro-1H-pyrido[2,1-c][1,4]oxazine-9-carboxamide]",≤ 100,> 300

# Now from value to compound:
IC50 [1] [nM],IC50 [2] [nM],SMILES
≤ 100,> 300,"COCCOc1cc2nccc(Oc3ccc(NC(=O)c4c(C)n(C)c(C)c(/C=C/C5CC5)c4=O)cc3F)c2nc1OC [Compound 51, 5-[(E)-2-Cyclopropylethenyl]-N-[3-fluoro-4-[[6-methoxy-7-(2-methoxyethoxy)-1,5-naphthyridin-4-yl]oxy]phenyl]-1,2,6-trimethyl-4-oxopyridine-3-carboxamide]"
≤ 100,> 300,"COc1cc2nccc(Oc3ccc(NC(=O)c4c5n(c(C)c(C6=CCOCC6)c4=O)CCOC5)cc3F)c2nc1OC [Compound 79, 7-(3,6-Dihydro-2H-pyran-4-yl)-N-[4-[(6,7-dimethoxy-1,5-naphthyridin-4-yl)oxy]-3-fluorophenyl]-6-methyl-8-oxo-3,4-dihydro-1H-pyrido[2,1-c][1,4]oxazine-9-carboxamide]"
> 300,> 300,"COCCOc1cc2nccc(Oc3cc(F)c(NC(=O)c4c(C)n(C)c(C)c(C#N)c4=O)cc3F)c2nc1OC [Compound 83, 5-Cyano-N-[2,5-difluoro-4-[[6-methoxy-7-(2-methoxyethoxy)-1,5-naphthyridin-4-yl]oxy]phenyl]-1,2,6-trimethyl-4-oxopyridine-3-carboxamide]"
≤ 100,≤ 100,"COc1cc2nccc(Oc3ccc(NC(=O)c4c(C)n(C)c(C)c(N5CCCC5)c4=O)cc3F)c2nc1OC [Compound 89, N-[4-[(6,7-Dimethoxy-1,5-naphthyridin-4-yl)oxy]-3-fluorophenyl]-1,2,6-trimethyl-4-oxo-5-pyrrolidin-1-ylpyridine-3-carboxamide]"
≤ 100,100 to 300,"COc1cc2nccc(Oc3ccc(NC(=O)c4c(C)n(C)c(C)c(N5CCCCC5)c4=O)cc3F)c2nc1OC [Compound 90, N-[4-[(6,7-dimethoxy-1,5-naphthyridin-4-yl)oxy]-3-fluorophenyl]-1,2,6-trimethyl-4-oxo-5-piperidin-1-ylpyridine-3-carboxamide]"
> 300,> 300,"COc1cnc2c(Oc3ccc(NC(=O)c4c(C)nc(C)c(C(N)=O)c4O)cc3F)ccnc2c1 [Compound 91, 3-N-[3-Fluoro-4-[(7-methoxy-1,5-naphthyridin-4-yl)oxy]phenyl]-4-hydroxy-2,6-dimethylpyridine-3,5-dicarboxamide]"
> 300,100 to 300,"COc1cc2nccc(Oc3ccc(NC(=O)c4c(C)n(C)c(C)c(C(=O)O)c4=O)cc3F)c2nc1OC [Compound 92, 5-[[4-[(6,7-Dimethoxy-1,5-naphthyridin-4-yl)oxy]-3-fluorophenyl]carbamoyl]-1,2,6-trimethyl-4-oxopyridine-3-carboxylic acid]"
> 300,≤ 100,"COc1cc2nccc(Oc3ccc(NC(=O)c4c(C)nc(C)c(C(=O)N(C)C)c4O)cc3F)c2nc1OC [Compound 93, 3-N-[4-[(6,7-Dimethoxy-1,5-naphthyridin-4-yl)oxy]-3-fluorophenyl]-4-hydroxy-5-N,5-N,2,6-tetramethylpyridine-3,5-dicarboxamide]"
≤ 100,≤ 100,"COc1cc2nccc(Oc3ccc(NC(=O)c4c(C)nc(C)c(C(=O)NC(C)C)c4O)cc3F)c2nc1OC [Compound 94, 3-N-[4-[(6,7-Dimethoxy-1,5-naphthyridin-4-yl)oxy]-3-fluorophenyl]-4-hydroxy-2,6-dimethyl-5-N-propan-2-ylpyridine-3,5-dicarboxamide]"
> 300,> 300,"COc1cc2nccc(Oc3ccc(NC(=O)c4c(C)n(C)c(C)c(C(=O)NC5CC5)c4=O)cc3F)c2nc1OC [Compound 96, 3-N-Cyclopropyl-5-N-[4-[(6,7-dimethoxy-1,5-naphthyridin-4-yl)oxy]-3-fluorophenyl]-1,2,6-trimethyl-4-oxopyridine-3,5-dicarboxamide]"
> 300,≤ 100,"COc1cc2nccc(Oc3ccc(NC(=O)c4c(C)nc(C)c(C(=O)NC5CC5)c4O)cc3F)c2nc1OC [Compound 98, 5-N-Cyclopropyl-3-N-[4-[(6,7-dimethoxy-1,5-naphthyridin-4-yl)oxy]-3-fluorophenyl]-4-hydroxy-2,6-dimethylpyridine-3,5-dicarboxamide]"
≤ 100,> 300,"COc1cc2nccc(Oc3ccc(NC(=O)c4c5n(c(C)c(C6=CCCC6)c4=O)CCOC5)cc3)c2nc1OC [Compound 99, 7-(Cyclopenten-1-yl)-N-[4-[(6,7-dimethoxy-1,5-naphthyridin-4-yl)oxy]phenyl]-6-methyl-8-oxo-3,4-dihydro-1H-pyrido[2,1-c][1,4]oxazine-9-carboxamide]"
